Results reported in ChEMBL document CHEMBL1201862, “PubChem BioAssay data set” (2004).
Calls of active or inactive are those of the source.

Columns and labels:
[1] = target: T1, Peroxisome proliferator-activated receptor gamma/Nuclear receptor corepressor 2 (Homo sapiens, UniProt P37231+Q9Y618); assay: Counterscreen for NR2E3 inverse agonists: TR-FRET-based biochemical high throughput dose response assay to identify inverse agonists of the interaction between peroxisome proliferator-activated receptor gamma (PPARg) and nuclear receptor co-repressor 2 (NCOR2).; type: functional
T1 sequence (P37231 whole entry): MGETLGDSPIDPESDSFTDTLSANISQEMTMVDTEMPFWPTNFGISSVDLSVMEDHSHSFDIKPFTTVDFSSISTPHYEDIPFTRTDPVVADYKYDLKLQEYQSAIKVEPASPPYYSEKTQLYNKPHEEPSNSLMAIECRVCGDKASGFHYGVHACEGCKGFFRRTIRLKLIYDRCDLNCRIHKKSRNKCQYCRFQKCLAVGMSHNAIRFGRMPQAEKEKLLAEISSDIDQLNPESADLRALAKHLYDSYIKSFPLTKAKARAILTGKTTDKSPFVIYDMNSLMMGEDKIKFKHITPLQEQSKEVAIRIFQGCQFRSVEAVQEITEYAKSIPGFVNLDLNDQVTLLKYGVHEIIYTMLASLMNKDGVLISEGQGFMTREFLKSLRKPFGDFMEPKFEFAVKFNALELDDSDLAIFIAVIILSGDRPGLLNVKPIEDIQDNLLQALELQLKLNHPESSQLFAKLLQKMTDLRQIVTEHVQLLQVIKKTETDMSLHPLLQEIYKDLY
T1 sequence (Q9Y618 whole entry): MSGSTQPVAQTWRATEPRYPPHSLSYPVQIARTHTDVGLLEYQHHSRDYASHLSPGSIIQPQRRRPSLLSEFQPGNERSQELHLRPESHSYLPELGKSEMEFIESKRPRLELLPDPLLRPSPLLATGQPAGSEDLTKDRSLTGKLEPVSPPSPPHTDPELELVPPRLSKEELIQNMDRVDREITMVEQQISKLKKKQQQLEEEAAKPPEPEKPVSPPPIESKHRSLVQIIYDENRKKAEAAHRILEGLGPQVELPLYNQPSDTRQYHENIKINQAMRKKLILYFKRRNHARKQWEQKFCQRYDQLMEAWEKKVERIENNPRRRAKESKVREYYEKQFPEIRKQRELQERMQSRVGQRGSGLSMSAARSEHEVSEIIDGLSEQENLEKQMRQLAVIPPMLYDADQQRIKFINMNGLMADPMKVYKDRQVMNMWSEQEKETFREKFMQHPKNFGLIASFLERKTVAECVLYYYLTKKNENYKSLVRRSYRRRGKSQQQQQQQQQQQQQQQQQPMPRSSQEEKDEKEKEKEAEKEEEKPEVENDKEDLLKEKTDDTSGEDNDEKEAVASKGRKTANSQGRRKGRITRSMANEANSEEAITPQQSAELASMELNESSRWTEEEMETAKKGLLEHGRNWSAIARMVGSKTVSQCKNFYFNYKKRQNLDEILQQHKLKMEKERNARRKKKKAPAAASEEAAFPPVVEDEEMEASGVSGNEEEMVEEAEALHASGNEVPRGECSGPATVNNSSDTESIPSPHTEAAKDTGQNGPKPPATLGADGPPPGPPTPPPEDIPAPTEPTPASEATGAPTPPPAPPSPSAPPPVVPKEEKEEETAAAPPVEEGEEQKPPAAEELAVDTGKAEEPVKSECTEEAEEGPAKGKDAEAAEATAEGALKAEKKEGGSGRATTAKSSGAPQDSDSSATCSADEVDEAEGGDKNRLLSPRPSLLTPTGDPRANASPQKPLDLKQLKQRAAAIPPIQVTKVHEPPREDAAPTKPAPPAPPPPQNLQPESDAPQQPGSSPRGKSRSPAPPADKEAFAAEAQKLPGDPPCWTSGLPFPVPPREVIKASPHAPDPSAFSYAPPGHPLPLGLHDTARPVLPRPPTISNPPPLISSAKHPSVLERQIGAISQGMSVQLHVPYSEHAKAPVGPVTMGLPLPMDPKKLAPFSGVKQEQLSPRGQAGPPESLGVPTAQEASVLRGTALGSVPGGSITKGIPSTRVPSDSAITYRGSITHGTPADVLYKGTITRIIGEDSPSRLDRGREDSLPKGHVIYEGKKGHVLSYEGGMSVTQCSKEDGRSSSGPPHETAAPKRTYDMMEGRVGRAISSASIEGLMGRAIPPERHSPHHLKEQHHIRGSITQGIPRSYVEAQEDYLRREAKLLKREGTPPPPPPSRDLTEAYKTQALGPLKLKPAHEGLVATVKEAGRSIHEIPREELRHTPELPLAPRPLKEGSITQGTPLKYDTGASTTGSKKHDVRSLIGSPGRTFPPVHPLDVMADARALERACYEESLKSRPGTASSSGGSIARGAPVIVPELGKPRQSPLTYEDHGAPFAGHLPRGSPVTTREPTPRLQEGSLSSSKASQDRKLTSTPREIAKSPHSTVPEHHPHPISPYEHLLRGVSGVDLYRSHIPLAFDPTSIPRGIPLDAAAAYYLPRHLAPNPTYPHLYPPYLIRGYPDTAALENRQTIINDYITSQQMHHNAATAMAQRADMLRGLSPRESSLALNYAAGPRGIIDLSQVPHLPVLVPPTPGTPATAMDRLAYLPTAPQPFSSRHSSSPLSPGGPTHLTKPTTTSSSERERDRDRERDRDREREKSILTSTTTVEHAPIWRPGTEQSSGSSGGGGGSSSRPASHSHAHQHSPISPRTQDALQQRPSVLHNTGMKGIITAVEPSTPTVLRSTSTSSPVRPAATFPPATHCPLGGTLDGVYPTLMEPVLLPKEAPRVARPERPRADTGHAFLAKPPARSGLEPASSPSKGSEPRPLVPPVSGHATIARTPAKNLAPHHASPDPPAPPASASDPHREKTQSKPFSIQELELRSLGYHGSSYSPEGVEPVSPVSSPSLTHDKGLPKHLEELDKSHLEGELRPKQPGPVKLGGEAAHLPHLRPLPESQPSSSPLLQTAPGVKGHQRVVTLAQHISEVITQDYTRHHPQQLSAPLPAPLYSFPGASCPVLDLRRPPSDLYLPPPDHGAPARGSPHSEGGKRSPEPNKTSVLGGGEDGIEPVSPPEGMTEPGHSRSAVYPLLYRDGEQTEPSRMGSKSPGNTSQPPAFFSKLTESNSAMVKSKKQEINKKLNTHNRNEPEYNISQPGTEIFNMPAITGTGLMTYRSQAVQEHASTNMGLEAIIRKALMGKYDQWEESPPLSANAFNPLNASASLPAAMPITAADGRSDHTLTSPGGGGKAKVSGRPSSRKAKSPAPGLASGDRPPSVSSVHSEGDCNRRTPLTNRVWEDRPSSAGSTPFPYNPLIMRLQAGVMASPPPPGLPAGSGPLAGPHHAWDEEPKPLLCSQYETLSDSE

[2] = target: T2, Photoreceptor-specific nuclear receptor (Homo sapiens, UniProt Q9Y5X4); assay: NR2E3 inverse agonists, dose response, biochemical, TR-FRET (AID 463256); type: functional
T2 sequence (Q9Y5X4 whole entry): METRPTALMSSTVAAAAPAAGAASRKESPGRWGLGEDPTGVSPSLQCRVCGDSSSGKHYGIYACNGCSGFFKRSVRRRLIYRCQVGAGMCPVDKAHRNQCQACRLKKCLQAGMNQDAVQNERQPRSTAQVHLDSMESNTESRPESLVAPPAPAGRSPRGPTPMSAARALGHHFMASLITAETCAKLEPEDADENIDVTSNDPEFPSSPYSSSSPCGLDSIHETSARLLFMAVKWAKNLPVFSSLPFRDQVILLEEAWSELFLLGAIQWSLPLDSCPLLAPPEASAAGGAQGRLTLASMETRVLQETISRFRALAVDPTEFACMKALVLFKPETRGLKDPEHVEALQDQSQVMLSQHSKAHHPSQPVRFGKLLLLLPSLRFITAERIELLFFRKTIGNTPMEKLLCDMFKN

[3] = target: T1, Peroxisome proliferator-activated receptor gamma/Nuclear receptor corepressor 2; type: functional
[4] = target: Beta-lactamase (Pseudomonas aeruginosa, UniProt Q79MP6);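 note: biochemical dose-response test of metallo-beta-lactamase enzyme inhibition, read out by epi-absorbance; purified recombinant IMP-1 metallo-beta-lactamase with nitrocefin as substrate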
[5] = target: Beta-lactamase (Salmonella choleraesuis (strain SC-B67), UniProt Q5J463)
Beta-lactamase (Salmonella choleraesuis (strain SC-B67), UniProt Q5J463), sequence (Q5J463 whole entry): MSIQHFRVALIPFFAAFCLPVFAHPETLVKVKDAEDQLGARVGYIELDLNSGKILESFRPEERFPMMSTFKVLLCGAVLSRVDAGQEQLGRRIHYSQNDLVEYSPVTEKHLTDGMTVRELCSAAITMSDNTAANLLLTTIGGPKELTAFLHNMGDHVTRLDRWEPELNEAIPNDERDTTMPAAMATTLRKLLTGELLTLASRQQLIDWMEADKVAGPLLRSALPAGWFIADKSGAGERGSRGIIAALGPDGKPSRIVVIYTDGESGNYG

[6] = inhibitors of SNCA 5'UTR-driven reporter translation, confirmation, H4 neuroglioma cells, luminescence (AID 1988); type: functional, cell-based
[7] = target: T2, Photoreceptor-specific nuclear receptor; type: functional
[8] = target: Genome polyprotein (Hepatitis C virus, UniProt Q2Q167); assay: HCV core protein dimerization inhibitors, dose response, biochemical, TR-FRET (AID 2159); parameters: species or system Hepacivirus hominis;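 note: blocks dimerization of HCV core protein measured by TR-FRET between tagged core106 pairs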
Genome polyprotein (Hepatitis C virus, UniProt Q2Q167), sequence (Q2Q167 whole entry): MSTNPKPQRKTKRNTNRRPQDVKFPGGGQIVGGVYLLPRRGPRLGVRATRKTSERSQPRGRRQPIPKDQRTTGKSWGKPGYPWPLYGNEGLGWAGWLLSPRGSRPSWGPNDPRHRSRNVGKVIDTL

[9] = inhibitors of firefly luciferase expression or activity, dose response, H4 neuroglioma cells, luminescence (AID 1990); type: functional, cell-based
[10] = Cytotoxicity screening for potential Inhibitors of Bacterial Capsule Biogenesis. [Related pubchem assays (depositor defined):AID488970]; type: functional
[11] = Luminescence Cell-Based Dose Response HTS to Identify Inhibitors of 5'UTR Stem-Loop Driven Prion Protein mRNA Translation in H4 Neuroglioblastoma Cells. [Related pubchem assays: 1827 (Project Summary), 1813 (Primary HTS)]; type: functional
[12] = target: Histone-lysine N-methyltransferase NSD2 (Homo sapiens, UniProt O96028); type: biochemical
[13] = target: 5-hydroxytryptamine receptor 1A (Homo sapiens, UniProt P08908); type: functional
5-hydroxytryptamine receptor 1A, sequence (P08908 whole entry): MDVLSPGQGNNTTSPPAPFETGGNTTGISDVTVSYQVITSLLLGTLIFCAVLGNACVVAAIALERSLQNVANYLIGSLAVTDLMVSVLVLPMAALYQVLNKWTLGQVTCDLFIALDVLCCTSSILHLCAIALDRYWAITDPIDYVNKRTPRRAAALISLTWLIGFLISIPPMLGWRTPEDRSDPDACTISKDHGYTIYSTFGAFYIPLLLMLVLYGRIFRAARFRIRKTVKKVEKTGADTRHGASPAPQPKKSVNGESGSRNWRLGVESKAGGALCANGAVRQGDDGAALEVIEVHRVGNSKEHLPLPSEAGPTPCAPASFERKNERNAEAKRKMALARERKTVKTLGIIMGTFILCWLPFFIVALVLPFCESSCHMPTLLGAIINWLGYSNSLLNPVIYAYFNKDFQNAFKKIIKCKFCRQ

[14] = target: 14-3-3 protein gamma (Homo sapiens, UniProt P61981); assay: modulators of 14-3-3 gamma client binding – dose response (AID 711); type: functional
14-3-3 protein gamma, sequence (P61981 whole entry): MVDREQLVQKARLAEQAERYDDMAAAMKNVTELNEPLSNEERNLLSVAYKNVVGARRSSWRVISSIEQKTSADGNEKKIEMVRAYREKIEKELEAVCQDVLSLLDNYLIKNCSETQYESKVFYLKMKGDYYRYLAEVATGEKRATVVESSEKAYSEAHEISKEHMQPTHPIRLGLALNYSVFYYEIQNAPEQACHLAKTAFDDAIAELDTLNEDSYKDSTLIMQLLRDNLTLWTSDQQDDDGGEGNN

[15] = target: Genome polyprotein (dengue virus type 2, UniProt P29990); assay: Dengue-2 NS5 methyltransferase inhibitors, primary screen, biochemical, confirmation dose response (AID 588689); type: functional
[16] = target: T3, Protein RecA (Mycobacterium tuberculosis, UniProt P9WHJ3); assay: Fluorescence Cell-Free Homogeneous Dose Retest to Identify Inhibitors of RecA-Intein Splicing Activity. [Related pubchem assays (depositor defined):AID2097, AID2223, AID489010, AID492950]; type: functional
T3 sequence (P9WHJ3 whole entry): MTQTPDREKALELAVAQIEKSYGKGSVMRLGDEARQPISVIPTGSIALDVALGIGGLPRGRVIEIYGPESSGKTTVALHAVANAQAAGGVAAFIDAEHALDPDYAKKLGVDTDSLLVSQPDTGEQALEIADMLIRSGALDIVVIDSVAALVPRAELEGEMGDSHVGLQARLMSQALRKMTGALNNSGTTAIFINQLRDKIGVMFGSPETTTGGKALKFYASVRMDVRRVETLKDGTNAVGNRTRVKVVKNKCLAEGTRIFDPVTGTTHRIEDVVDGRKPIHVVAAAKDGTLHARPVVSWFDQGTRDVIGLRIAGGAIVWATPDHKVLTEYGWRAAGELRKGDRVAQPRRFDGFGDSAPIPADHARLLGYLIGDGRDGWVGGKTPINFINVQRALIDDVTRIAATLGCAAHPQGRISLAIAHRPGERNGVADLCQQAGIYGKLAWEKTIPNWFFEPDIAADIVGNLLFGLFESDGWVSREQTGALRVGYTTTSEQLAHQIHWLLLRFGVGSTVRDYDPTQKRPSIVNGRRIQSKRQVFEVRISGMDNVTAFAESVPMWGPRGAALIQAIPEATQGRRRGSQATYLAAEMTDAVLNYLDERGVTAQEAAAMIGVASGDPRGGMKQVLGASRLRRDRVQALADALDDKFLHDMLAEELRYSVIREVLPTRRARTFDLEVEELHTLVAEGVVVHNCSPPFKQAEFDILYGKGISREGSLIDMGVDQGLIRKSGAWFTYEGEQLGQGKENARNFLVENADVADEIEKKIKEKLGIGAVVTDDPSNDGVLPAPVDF

[17] = target: T4, Replicative DNA helicase DnaB (Mycobacterium tuberculosis, UniProt P9WMR3); assay: DnaB intein splicing inhibitors, dose response, biochemical, cell-free fluorescence (AID 449749); type: functional
T4 sequence (P9WMR3 whole entry): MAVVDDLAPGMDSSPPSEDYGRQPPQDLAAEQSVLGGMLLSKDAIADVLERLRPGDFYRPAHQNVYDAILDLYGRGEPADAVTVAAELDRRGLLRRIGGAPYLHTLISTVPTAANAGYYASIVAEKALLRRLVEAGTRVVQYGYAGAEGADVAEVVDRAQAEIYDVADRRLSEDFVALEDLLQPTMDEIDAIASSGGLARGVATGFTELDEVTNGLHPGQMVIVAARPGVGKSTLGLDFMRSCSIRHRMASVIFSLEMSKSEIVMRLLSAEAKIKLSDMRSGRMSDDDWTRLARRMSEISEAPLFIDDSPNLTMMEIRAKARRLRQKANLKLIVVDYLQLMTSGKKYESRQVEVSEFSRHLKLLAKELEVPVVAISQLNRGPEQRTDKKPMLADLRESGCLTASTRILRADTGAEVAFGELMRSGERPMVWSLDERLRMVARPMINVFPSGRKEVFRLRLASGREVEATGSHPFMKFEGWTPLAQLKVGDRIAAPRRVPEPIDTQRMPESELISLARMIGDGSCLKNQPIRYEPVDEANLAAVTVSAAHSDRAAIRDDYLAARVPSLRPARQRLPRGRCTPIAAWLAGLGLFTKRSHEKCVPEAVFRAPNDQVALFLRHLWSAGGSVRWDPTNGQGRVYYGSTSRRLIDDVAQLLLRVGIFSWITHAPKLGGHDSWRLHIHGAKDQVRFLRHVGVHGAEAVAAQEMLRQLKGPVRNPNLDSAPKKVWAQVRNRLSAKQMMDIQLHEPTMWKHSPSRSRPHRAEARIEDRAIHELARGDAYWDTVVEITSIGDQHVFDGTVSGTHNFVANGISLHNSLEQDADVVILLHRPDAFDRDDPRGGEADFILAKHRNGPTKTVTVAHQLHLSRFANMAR

[18] = target: T5, Fibrinogen beta chain (Homo sapiens, UniProt P02675); assay: Fluorescence polarization-based biochemical high throughput dose response assay to identify inhibitors that disrupt the binding of a cyclic peptide (Tn6) to the fibrin proteolytic product D-Dimer and fragment E complex [DD(E )].
T5 sequence (P02675 whole entry): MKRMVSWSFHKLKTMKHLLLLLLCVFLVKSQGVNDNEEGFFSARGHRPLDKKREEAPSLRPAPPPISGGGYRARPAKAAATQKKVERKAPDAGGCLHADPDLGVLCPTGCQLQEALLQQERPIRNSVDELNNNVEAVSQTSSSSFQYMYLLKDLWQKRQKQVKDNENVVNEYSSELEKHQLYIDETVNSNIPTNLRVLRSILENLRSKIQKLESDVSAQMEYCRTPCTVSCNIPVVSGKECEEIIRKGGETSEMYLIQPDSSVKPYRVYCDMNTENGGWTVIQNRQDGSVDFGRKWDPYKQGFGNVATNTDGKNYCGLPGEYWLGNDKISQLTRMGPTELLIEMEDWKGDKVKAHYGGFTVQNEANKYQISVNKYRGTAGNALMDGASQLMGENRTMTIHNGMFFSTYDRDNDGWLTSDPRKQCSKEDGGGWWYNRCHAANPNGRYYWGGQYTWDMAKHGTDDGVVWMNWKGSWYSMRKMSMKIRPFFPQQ

[19] = target: T6, Zinc finger protein mex-5 (Caenorhabditis elegans, UniProt Q9XUB2); assay: MEX-5/TCR-2 RNA interaction inhibitors, dose response, biochemical, C. elegans, fluorescence polarization (AID 1960)
T6 sequence (Q9XUB2 whole entry): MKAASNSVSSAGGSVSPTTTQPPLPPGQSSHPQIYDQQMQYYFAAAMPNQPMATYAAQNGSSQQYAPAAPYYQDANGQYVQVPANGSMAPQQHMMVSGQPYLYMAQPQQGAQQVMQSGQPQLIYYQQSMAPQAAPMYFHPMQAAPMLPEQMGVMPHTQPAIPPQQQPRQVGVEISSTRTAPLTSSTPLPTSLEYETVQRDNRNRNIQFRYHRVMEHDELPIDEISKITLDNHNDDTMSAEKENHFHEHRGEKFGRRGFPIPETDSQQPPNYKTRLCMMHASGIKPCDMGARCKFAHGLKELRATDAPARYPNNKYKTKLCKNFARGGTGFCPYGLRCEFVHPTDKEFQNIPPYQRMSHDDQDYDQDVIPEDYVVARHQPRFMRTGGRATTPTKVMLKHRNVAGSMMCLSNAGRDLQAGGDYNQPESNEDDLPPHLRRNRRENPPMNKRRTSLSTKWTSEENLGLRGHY

[20] = target: T7, Bcl-2-like protein 10 (Homo sapiens, UniProt Q9HD36); assay: displacers of TR3 peptide from Bcl-B, primary screen, selectivity assay for Bfl-1 inhibitor project, biochemical, fluorescence polarization, FITC-TR3 peptide (AID 748);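 note: fluorescence polarization from a fluorescein-labelled TR3 peptide binding purified Bcl-B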
T7 sequence (Q9HD36 whole entry): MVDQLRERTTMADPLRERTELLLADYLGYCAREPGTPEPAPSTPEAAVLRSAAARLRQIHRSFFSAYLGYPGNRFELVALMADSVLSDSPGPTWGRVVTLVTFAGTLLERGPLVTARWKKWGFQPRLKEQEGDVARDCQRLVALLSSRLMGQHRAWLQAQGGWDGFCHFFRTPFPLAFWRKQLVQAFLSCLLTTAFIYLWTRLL

[21] = target: Tyrosyl-DNA phosphodiesterase 2 (Homo sapiens, UniProt O95551); assay: human TDP2 enzyme inhibitors, dose response, biochemical, epi absorbance, IC50 (AID 743297)
Tyrosyl-DNA phosphodiesterase 2, sequence (O95551 whole entry): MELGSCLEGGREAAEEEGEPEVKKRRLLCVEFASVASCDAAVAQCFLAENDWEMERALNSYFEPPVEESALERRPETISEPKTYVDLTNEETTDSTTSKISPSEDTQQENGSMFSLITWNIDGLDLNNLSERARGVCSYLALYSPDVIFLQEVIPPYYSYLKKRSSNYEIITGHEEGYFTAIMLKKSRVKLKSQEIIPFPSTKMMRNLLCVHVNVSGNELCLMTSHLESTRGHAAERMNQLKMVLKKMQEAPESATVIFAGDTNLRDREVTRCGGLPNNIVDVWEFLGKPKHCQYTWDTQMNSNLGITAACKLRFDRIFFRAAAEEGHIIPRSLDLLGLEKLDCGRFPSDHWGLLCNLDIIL

[22] = Artemis endonuclease inhibitor potency, dose response, biochemical, fluorescence intensity (AID 720701); type: functional;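 note: Artemis endonuclease enzyme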
[23] = target: T5, Fibrinogen beta chain; assay: Fluorescence polarization-based biochemical high throughput dose response assay to identify inhibitors that disrupt the binding of a cyclic peptide (Tn7) to the fibrin proteolytic product D-Dimer and fragment E complex [DD(E )].
[24] = target: T8, RNA-binding protein pos-1 (Caenorhabditis elegans, UniProt G5EF15); assay: inhibitors of POS-1/mex-3 RNA binding, dose response, biochemical, fluorescence polarization (AID 1964);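 note: purified POS-1 fused to maltose binding protein made in E. coli; potency of compounds blocking POS-1 binding to fluorescent RNA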
T8 sequence (G5EF15 whole entry): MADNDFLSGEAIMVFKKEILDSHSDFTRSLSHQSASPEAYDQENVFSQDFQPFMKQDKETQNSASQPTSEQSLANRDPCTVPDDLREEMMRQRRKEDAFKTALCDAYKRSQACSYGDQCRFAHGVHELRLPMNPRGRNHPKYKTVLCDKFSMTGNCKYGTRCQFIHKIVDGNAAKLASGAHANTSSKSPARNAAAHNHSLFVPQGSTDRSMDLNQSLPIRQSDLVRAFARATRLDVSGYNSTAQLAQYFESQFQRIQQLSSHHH

[25] = tested on: Danio rerio; assay: In Vivo Angiogenesis Dose-Response Confirmation. [Related pubchem assays: 732 (Assay preceding this confirmatory assay.)]; type: functional, organism-based
[26] = M. tuberculosis growth inhibition, HTS (AID 449762); type: functional
[27] = target: Ephrin type-A receptor 4 (Mus musculus, UniProt Q03137); assay: inhibitors of EphA4 binding to KYL peptide, primary screen, biochemical, colorimetric, mouse EphA4 (AID 689); type: functional
[28] = target: Heat shock protein HSP 90-alpha (Homo sapiens, UniProt P07900); assay: Luminescence-based dose response biochemical high throughput screening assay for inhibitors of the Heat Shock Protein 90 (HSP90). [Related pubchem assays: 1831 (Summary AID.), 1846 (Confirmation screen.), 1789 (Primary screen.)]

Cc1ccc(-c2cc(C(=O)NCc3cnn(C)c3)c3cc(Br)ccc3n2)cc1
IC50 [1]: 1.56 µM (active) | IC50 [2]: 2.99 µM (active)

CCN(CC)c1ccc2c(-c3ccc(S(=O)(=O)O)cc3S(=O)(=O)[O-])c3ccc(=[N+](CC)CC)cc-3oc2c1
IC50 [3]: 1.02 µM (active) | IC50 [4]: > 59.6 µM (inactive) | IC50 [5]: > 59.6 µM (inactive) | EC50 [6]: 9.58 µM (active) | IC50 [7]: > 39.8 µM (not active) | IC50 [8]: > 49.8 µM (not active) | EC50 [9]: 11.7 µM (active) | CC50 [10]: 18.4 µM (active) | EC50 [11]: 11.4 µM (active) | AC50 [12]: > 20 µM (inactive)

Cc1cccc(NC(=O)C2CCCN(C(=O)Nc3ccccc3)C2)c1C (stereo not drawn)
EC50 [13]: > 50 µM (not active)

COc1cc(NCCCC(C)N)c2ncccc2c1 (stereo not drawn)
IC50 [14]: > 50 µM (not active) | IC50 [15]: > 100 µM (active) | EC50 [16]: 0.42 µM (active) | AC50 [17]: 4.78 µM (active) | IC50 [18]: 54.4 µM (inactive) | EC50 [19]: 34.3 µM (active) | IC50 [20]: 8.47 µM (active) | IC50 [21]: 49.2 µM (inactive) | IC50 [22]: > 20 µM (inactive) | IC50 [23]: > 83.3 µM (inactive) | EC50 [24]: 42.5 µM (active)

COc1cc2ncnc(Nc3cccc(Cl)c3)c2cc1OC [TYRPHOSTIN AG-1478]
IC50 [25]: 12.7 µM (not active)

O=C(COc1cc(O)c2c(=O)c3ccccc3oc2c1)OCc1ccccc1
IC50 [26]: > 100 µM (active)

CCN(CCNC(=O)C1CCCN(S(=O)(=O)CC)C1)c1ccccc1 (stereo not drawn)
IC50 [27]: > 100 µM (not active)

CC(=O)c1ccc(N=Nc2c(C)[nH]n(-c3ccccc3)c2=O)cc1
IC50 [28]: 4.4 µM (active)
